Experiments:
[1] = test system: BAE/APJ#2 cells; assay: BAE/APJ#2 cell proliferation, BrdU incorporation; assay type: cell-based, bovine; design: effect on VEGF-mediated proliferation: dose or concentration left out as unconfirmed
Protocol: (§1) Bovine aortic endothelial cells (BAE) were cultured in DMEM supplemented with 10% fetal bovine serum (FBS) and penicillin/streptomycin. For generation of stable cell lines expressing APJ, the mouse APJ coding region was cloned into the pcDNA 3.1 vector downstream of the CMV promoter, in frame with a myc epitope at the C-terminal end of the protein, and upstream of the neomycin gene. Bovine aortic endothelial (BAE) cells were transfected with this construction using the Superfect transfection kit (Qiagen) and selected for resistance to G418 (600 μg/ml). Colonies were isolated and screened using RT-PCR for expression of mouse APJ and also by immunocytochemistry for expression of the myc epitope.

[2] = test system: mouse endothelial cells (bEnd3); assay: bEnd3 cell proliferation, BrdU incorporation; assay type: cell-based
Protocol: Similar cellular proliferation assays were performed using mouse endothelial cells (bEnd3) that constitutively express APJ. […] SU1498 was included in proliferation cultures at a 25 μM concentration, and results were assayed using BrdU incorporation.
Proliferation inhibition experiments with the bEnd3 cells also were carried out using FGF (50 ng/ml) or the FGF pathway inhibitor SU5402 (FIG. 19). SU5402 was included in proliferation cultures at a 20 μM concentration, and results were assayed using BrdU incorporation.

[3] = test system: apelin transcript; assay: Antisense morpholino loss-of-function in frog embryos (apelin); assay type: in vivo, Xenopus laevis
Protocol: Loss-of-function experiments were performed using antisense morpholino oligonucleotides (MOs) (Gene Tools, Philomath, Oreg.), and the results are shown in FIG. 9. All morpholino oligonucleotides were designed based on recommendations from Gene Tools.
(§2) Morpholino oligonucleotides were reconstituted in 50 mM HEPES buffer (pH 8.0) and injected into the frog embryo. The ap1 MO was injected at 15 ng per embryo, and the ap2 and apj MOs were injected at 7.5 ng. Mismatch controls, ap2 mm and apjmm, were used at twice the experimental dose (15 ng). The MOs were injected into one cell of a 2 cell embryo together with Texas Red Dextran (10 ng; Molecular Probes) as a lineage tracer. Embryos were grown to stage 35 when they were assayed by in situ hybridization using the vascular marker, erg.

[4] = test system: APJ transcript; assay: Antisense morpholino loss-of-function in frog embryos (APJ); assay type: in vivo, Xenopus laevis
Protocol: One antisense morpholino oligonucleotide, designed to block translation from both copies of the APJ transcript, was targeted immediately upstream of the initiation ATG: apj 5′-[…]-3′ (SEQ ID NO:9).
The 5 base pair mismatch control sequence for the apj morpholino oligonucleotide (apjmm) is: apjmm 5′-AAGcCTcTGTGcAAcCAATAcAAAG-3′ (SEQ ID NO:10); the mismatch bases indicated in lowercase.
as §2

[5] = test system: apelin expression; assay: Apelin expression in cardiac myocytes under cobalt chloride (hypoxia mimic), PCR; assay type: cell-based, rat
Protocol: Preliminary experiments were carried out using primary rat cardiomyocyte cells in culture and treatment with cobalt chloride. This procedure is accepted as an equivalent to culturing cells under hypoxic conditions because HIF-1α is a metal responsive transcription protein (Ladoux and Frelin, 1994; Piret et al., 2002; Maxwell and Salnikow, 2004). Fetal rat cardiac myocytes were plated and cultured in DMEM (Invitrogen, Carlsbad, Calif.) supplemented with 10% fetal calf serum and penicillin/streptomyocin at 37° C. After four days of culture, medium was removed, and cells were treated with fresh media containing 150 μM Cobalt Chloride (Piret et al., 2002). […] After 4 hours of culture, cells were harvested, and total RNA was extracted using the Trizol procedure according to the manufacturers recommendations (Invitrogen, Carlsbad, Calif.).
Following PCR, amplification products were fractionated on an agarose gel and visualized using ethidium bromide staining under ultraviolet light (FIG. 12).
The myocytes were grown in the presence of Cobalt chloride (30 μg/ml). A control known to be non-responsive to hypoxic conditions was used (β-actin), as well as two positive controls which are known to be responsive to hypoxic conditions (VEGF and GLUTI).

[6] = test system: BAE/APJ#2 cells; conditions: 10 ng/ml in bottom chamber, 16 hours
Protocol: as §1
Cell migration assays were performed using Transwell cell culture migration chambers (Becton Dickinson) with 8 micron pore size. BAE/APJ#2 cells were plated in serum free conditions in 100 μl at a concentration of 1×10^5 ml in the upper chamber of the migration chamber. Following cell attachment to the membrane, 10 ng/ml of growth factor was added to the bottom chamber, in a total volume of 0.5 ml. […] Cells attached to the membrane in the lower chamber were stained with DAPI, and 3 random fields were counted for each experimental condition.

CC(C)c1cc(/C=C(\C#N)C(=O)NCCCc2ccccc2)cc(C(C)C)c1O [SU1498]
effect on VEGF-mediated proliferation ([1]; SU1498): partially inhibits | effect on apelin-mediated proliferation ([1]; SU1498 10 ng/ml): no significant effect | effect on VEGF-mediated proliferation ([2]; bEnd3, SU1498 25 μM, VEGF 50 ng/ml): partially inhibits | effect on apelin-mediated proliferation ([2]; bEnd3, SU1498 25 μM, apelin 10 ng/ml): no significant effect

5′-GATTCATGTTTCTTGTGGCTGAGTG-3′ (all phosphorodiamidate morpholino (PMO)) [ap2]
embryos with loss of intersomitic vessel formation ([3]; 7.5 ng, N=64, stage 35): 63 % of the embryos

5′-AAGGCTGTGTGGAAGCAATAGAAAG-3′ (all phosphorodiamidate morpholino (PMO)) [antisense morpholino to the APJ receptor]
embryos with decrease in angiogenic growth of blood vessels ([4]; 7.5 ng, N=48, stage 35): 71 % of the embryos

[Cl][Co][Cl] [Cobalt Chloride]
apelin expression (PCR) ([5]; 150 μM Cobalt Chloride, 4 hours, fetal rat cardiac myocytes): significantly increased | apelin expression ([5]; Cobalt chloride 30 μg/ml, rat cardiac myocytes): induced

Cc1c[nH]c(/C=C2\C(=O)Nc3ccccc32)c1CCC(=O)O [SU5402]
effect on the proliferative effect of FGF ([2]; bEnd3, SU5402 20 μM, FGF 50 ng/ml): partially inhibited | effect on apelin-stimulated cellular proliferation ([2]; bEnd3, SU5402 20 μM, apelin 10 ng/ml): did not have a significant effect

5′-GATTgATcTTTgTTGTGcCTcAGTG-3′ (antisense GATTGATCTTTGTTGTGCCTCAGTG; all phosphorodiamidate morpholino (PMO)) [ap2 mm]
alteration in the vascular growth of the embryos ([3]; mismatch control, 15 ng): did not produce a detectable alteration

VEGF
endothelial cell migration (cells per field) [6]: increase in migration | cellular proliferation of endothelial cells ([2]; bEnd3, apelin 10 ng/ml, VEGF 50 ng/ml, FIG. 17 0.1 ng/ml to 1 μg/ml): proliferate

5′-AAGcCTcTGTGcAAcCAATAcAAAG-3′ (antisense AAGCCTCTGTGCAACCAATACAAAG; all phosphorodiamidate morpholino (PMO)) [apjmm]
alteration in the vascular growth of the embryos ([4]; mismatch control, 15 ng): did not produce a detectable alteration

5′-GTGCCCAAAGTCTGAGATTCATGTT-3′ (all phosphorodiamidate morpholino (PMO)) [ap1]
embryos with inhibition of angiogenic growth of embryonic blood vessels ([3]; 15 ng per embryo, N=76, stage 35): 67 % of the embryos

Source: patent publication US20060045880A1 (priority 2004, published 2006)
